In patent US20220235328A1, “HUMAN DISEASED AND NORMAL KIDNEY EPITHELIAL CELL CULTURES AND USES THEREOF” (DISCOVERYBIOMED, INC., priority 2019, published 2022):
In brackets after ≈: the same amount, converted by molar mass.

Assays:
[1] = tested on: Immortal Human ADPKD Cell Line; assay: TEER of cell monolayers pre- and post-amiloride; type: cell-based; conditions: amiloride treatment
Description: High-titer aliquots (10^9 pfu) of Lenti-SV40T, Lenti-hTERT-Neo and Lenti-CDK4 from Applied Biological Materials (ABM) (Richmond, BC, Canada) and Lenti-CDNK2 (Sigma-Aldrich) were diluted into transfection media to 10^7 pfu for cell challenge. In some cases, Lenti-hTERT and Lenti-CDK4 or Lenti-CDNK2 were combined as a newer immortalization method. huADPKD primary cultures were selected for immortalization based on a compelling genotype, an acceptable cell proliferation rate, and an ability to form cysts in 3D Matrigel culture. Mixed immortalized cultures were established by both methods from primary cultures where the lifetime of the cells were doubled from 5 passages (primary) to 10 passages (mixed immortal). The SV40T method was successful in generating immortal cell cultures that formed electrically tight polarized cell monolayers for transepithelial resistance (TEER) measurements and likely Ussing chamber-based electrophysiological recording of ion transport. These immortal human ADPKD cell monolayers may also be useful in fluid transport assays. Transepithelial/transendothelial electrical resistance (TEER) data for a new immortalized human ADPKD cell line are shown in Table 1 below.

ADPKD cells = assay: AVP-stimulated cystogenesis, 384-well high-content imaging; type: cell-based, human; conditions: 14 days culture in the presence of AVP versus absence
Description: Whole well automated high-content imaging was performed of ADPKD primary cells seeded in 384-well plates using the BioTek Cytation 5 system. Multiple well were captured per treatment. Uniform images were fed into deep learning algorithms for analysis. Stimuli like cAMP agonists and growth factors were not required, as the DBM RenalCyte media was sufficient to drive cystogenesis, as shown in FIG. 14.

ADPKD cell cultures [2] = assay: Cyst prevention assay, 3D CellTiterGLO cell viability, CRC design; type: cell-based, human
Description: In this assay, the ADPKD cell cultures were incubated on 4 days before 1 week of treatment with drugs, media only or DMSO only.

ADPKD cell cultures [3] = assay: Cyst reduction assay, 3D CellTiterGLO cell viability, CRC design; type: cell-based, human
Text: Results are shown in FIG. 26 for a cyst reduction assay.

primary huADPKD cells [4] = assay: Cyst prevention cystogenesis bioassay, 3D biogel, 48-well, light microscopy; conditions: for overt cell cytotoxicity: concentrations tested; for effect on cyst appearance and expansion: midway point and end of assay, various concentrations
Description: Primary cells capable of 3D cystogenesis were seeded into a 3D biogel that is liquified before the gel sets. The gel set undisturbed within a humidified 5% CO2 incubator for 18 hours. An equal volume of DBM RenalCyte media was then overlaid in each well of a 48-well plate. “Add” feeds were performed until the well was full, and then half of the volume of media was removed and new media added at the same volume thereafter. […] In the cyst prevention assay, cysts were challenged as soon as they started to appear (small in dimension and few in number per well) with a test compound. The timing of addition of the test compound, frequency of addition of the test compound and concentration of the test compound varied. The effects on the cysts were followed by light-based microscopic imaging over time. In addition to visual inspection by light-based microscopic imaging occurring throughout the study, the number of cysts were counted per well at the end of the study and light-based endpoints were examined, such as 3D CellTiter-GLO® from Promega (Madison, Wis.) (to quantify viable cells), secretion (to quantify cell membrane integrity), and/or Caspase-GLO® (Promega) (to measure induction of apoptosis) in multiplex fashion. A modified version of this assay images after seeding the biogel each day for complete prevention of cyst formation versus counterpart controls over a 14 to 21-day period. Multiple replicates were performed, and cells from multiple donors were tested.

primary huADPKD cells [5] = assay: Cyst attack cystogenesis bioassay, cyst image tracking; type: cell-based, human; conditions: 3 μM
Description: Primary cells capable of 3D cystogenesis were seeded as described above for the cyst prevention cytogenesis bioassay. In the cyst attack assay, cysts were allowed to develop to 12-24 in number and allowed to expand to a significant size. Specific cysts or cyst clusters were marked in each well. A test compound was then added to attack the already formed cysts to determine effects on the cysts. […] The timing of addition of the compound, frequency of addition of the compound and concentration of the compound varied.
A prominent cyst was imaged before treatment and daily for 6 days after treatment began. This larger cyst increased by 2.5 to 3.0 fold in the presence of the industry standard drug, tolvaptan, a vasopressin receptor antagonist.

[6] = Solubility limit noted in the cyst prevention assay; type: physicochemical
primary huADPKD cells [7] = assay: 384-well cyst prevention assay, percent viability versus DMSO control; type: cell-based, human
Description: (§1) A BioTek Cytation 5 (Biotek instruments, Winooski, Vt.) high content imaging and light-based high-throughput screening imaging system was used to image the huADPKD cells growing in 3D Biogels in 96-well and 384-well microliter plates. The Cytation 5 is coupled to a BioTek BioSpa 8 (a humidified CO2 incubator), such that trays can be extracted one at a time for analysis in the reader and then returned to the BioSpa.
While no drivers are required, they can be used if desired. Edge wells are filled with saline to mitigate edge effects
Whole well automated high-content imaging was performed of ADPKD primary cells seeded in 384-well plates using the BioTek Cytation 5 system. Multiple well were captured per treatment. Uniform images were fed into deep learning algorithms for analysis.
(§2) Concentrations of 30-1000 nM were tested for each, and data were expressed as percent viability versus DMSO control (n=12). […] Statistical analysis was performed using ANOVA.

[8] = tested on: primary human ADPKD cultures; assay: 384-well cyst attack assay, 3D CellTiterGLO cell viability; type: cell-based
Description: as §1, §2

[9] = from complete loss of viability signal
[10] = incubated 4 days before 1 week of treatment
[11] = incubated 10 days before 1 week of treatment

## N=C(N)NC(=O)c1nc(Cl)c(N)nc1N [Amiloride, amiloride]
[1]
  change of transepithelial resistance, in words: increase in resistance

## NC(=O)CC[C@@H]1NC(=O)[C@H](Cc2ccccc2)NC(=O)[C@H](Cc2ccc(O)cc2)NC(=O)[C@@H](N)CSSC[C@@H](C(=O)N2CCC[C@H]2C(=O)N[C@@H](CCCN=C(N)N)C(=O)NCC(N)=O)NC(=O)[C@H](CC(N)=O)NC1=O [Arginine Vasopressin (AVP), Arginine Vasopressin]
ADPKD cells
  cyst size: more larger on average

## CC(C)(CO)c1cc2cc(NC(=O)C3(c4ccc5c(c4)OC(F)(F)O5)CC3)c(F)cc2n1C[C@@H](O)CO [VX-661]
ADPKD cell cultures [2]; Homo sapiens, incubated 4 days before 1 week of treatment
  IC50: 10 µM
ADPKD cell cultures [2]; [9]
  cytotoxicity: overt cytotoxicity
ADPKD cell cultures [2]; [10]
  extent of inhibition, in words: complete inhibition to no signal
ADPKD cell cultures [3]; Homo sapiens, incubated 10 days before 1 week of treatment
  IC50: 30 µM
ADPKD cell cultures [3]; [9]
  cytotoxicity: overt cytotoxicity
ADPKD cell cultures [3]; [11]
  extent of inhibition, in words: complete inhibition to no signal

## Cc1ccc(NC(=O)C2(c3ccc4c(c3)OC(F)(F)O4)CC2)nc1-c1cccc(C(=O)O)c1 [VX-809]
ADPKD cell cultures [2]; [10]
  extent of inhibition, in words: only a partial effect and only at the highest concentration
ADPKD cell cultures [3]; [11]
  extent of inhibition, in words: only a partial effect and only at the highest concentrations

## COc1cc(Nc2c(C#N)cnc3cc(OCCCN4CCN(C)CC4)c(OC)cc23)c(Cl)cc1Cl [bosutinib]
Primary huADPKD cells [4]
  overt cell cytotoxicity: no overt cell cytotoxicity
  effect on cyst appearance and expansion: no effect
Primary huADPKD cells [5]; in 1-2 days
  increase in size of a small cyst: 2 fold

## CO[C@H]1C[C@@H]2CC[C@@H](C)[C@@](O)(O2)C(=O)C(=O)N2CCCC[C@H]2C(=O)O[C@H]([C@H](C)C[C@@H]2CC[C@@H](O)[C@H](OC)C2)CC(=O)[C@H](C)/C=C(\C)[C@@H](O)[C@@H](OC)C(=O)[C@H](C)C[C@H](C)/C=C/C=C/C=C/1C [rapamycin]
Primary huADPKD cells [5]
  overt toxicity: not overtly toxic
[6]
  solubility: ~30 µM (≈ 27.4 µg/mL)

## Cc1ccccc1C(=O)Nc1ccc(C(=O)N2CCCC(O)c3cc(Cl)ccc32)c(C)c1 (stereo not shown) [tolvaptan]
ADPKD cell cultures [3]; [11]
  extent of inhibition, in words: only a partial effect and only at the highest concentrations
Primary huADPKD cells [4]; 10 and 30 micromolar
  cyst expansion: may have slowed cyst expansion
Primary huADPKD cells [4]
  overt cell cytotoxicity: no overt cell cytotoxicity
  effect on cyst appearance and expansion: little effect
Primary huADPKD cells [7]; Homo sapiens, cyst prevention assays in 384-well plates, FIG. 24
  IC50: > 10 µM
Primary huADPKD cells [7]; cAMP stimulated
  efficacy in cAMP stimulated assays: only slightly more effective
Primary huADPKD cells [7]; cyst prevention assays, FIG. 23
  concentrations at which effective: only at mid-micromolar concentrations
Primary huADPKD cells [7]; prevention assay, 30-1000 nM
  efficacy, percent viability versus DMSO control: ineffective
Primary huADPKD cells [5]; 6 days
  size of the smaller cyst: quickly reduced in size
Primary huADPKD cells [5]; week-long treatment
  size of the large cyst: doubled in size but then decreased in size to a slightly reduced size
[8]; Homo sapiens, 10-fold higher concentration (10 μM), 2 weeks incubation, then 1-week treatment
  inhibition at 10 µM: ~20%
[8]; attack assay, 30-1000 nM
  efficacy, percent viability versus DMSO control: ineffective
[6]
  solubility: ~30 µM (≈ 13.5 µg/mL)
